According to paper PMC10046687, “Residues of Legume AG41 Peptide Crucial to Its Bio-Insecticidal Activity” (Biomolecules, 2023):
Read-outs that look alike come from different tables or passages of the source. Bridge positions count the residues as written; N and C are the ends. Ends that are not written are not given here.

Key:
PA1b receptor = assay: Competitive ligand binding with 125I-PA1b on microsomal protein; details: competition with 0.4 nM 125I-PA1b, 20 µg microsomal protein per assay, peptide 0.01 to 1000 nM, mean ± standard error, read-out: Ki (affinity to the PA1b receptor)
Description: To evaluate the affinity of synthetic AG41 and its mutants to PA1b receptor, ligand binding studies were conducted ^125I-toxin [29]. […] Total binding was assessed using 20 µg per assay of microsomal protein (sedimenting at 45,000 g) and 0.4 nM of I^125-PA1b, while in the non-specific binding assays 1000 nM of unlabeled AG41 or alanine mutant peptide was added. The level of specific binding (i.e., total binding minus non-specific binding) was estimated based on three replicates. Competitive experiments were performed with 0.4 nM ^125I-PA1b (specific radioactivity of approximately 1000 Ci.mmol^−1) and competition was performed with AG41 and its alanine mutant peptides at concentrations ranging from 0.01 to 1000 nM.
(§1) The experimental Ki and LD5O data were assessed separately by non-linear regression analysis using the SIMFIT software package. Biological results are expressed as mean ± S.E. (standard error).

[1] = test system: Spodoptera frugiperda Sf9 insect cells; assay: Viability assay (MTT) on cultured Sf9 insect cells; assay type: cell-based; details: 24 h exposure, 27 °C, each concentration in triplicate, mean ± standard error, SEM
Description: Viability assays were performed on Spodoptera frugiperda Sf9 insect cells in culture using the 3-(4,5-dimethylthiazol-2-yl)-2,5-diphenyltetrazolium bromide (MTT) protocol. Briefly, Sf9 cells lines were grown at 27 °C in Lonza’s culture medium, supplemented with 5% fetal bovine serum (FBS) and 0.1% gentamicin. Sf9 cells were seeded, in 96-well plates, 24 h prior to the experiments (15,000 cells/well) and were exposed to increasing concentrations of AG41 and its alanine mutant peptides for 24 h. Each concentration was performed in triplicate. Cell viability was determined by a colorimetric assay based on the ability of viable cells to reduce MTT. Cells were loaded with MTT solution (0.5 mg ml^−^1) and incubated at 27 °C for 2 h. Cell homogenates were used to measure absorbance at 550 nm using a microplate reader (MR 7000, Dynatech Laboratories Inc., Richmond, CA, USA).
as §1

With “ASCPNVGAVCSPFETKPCGNVKACRCLPWGLFFGTCINPTG (disulfide 3-24, 10-26, 18-36) [D23A]” the Ki (PA1b receptor; SEM) was 1.2 ± 1.6 nM and the “LD50 (insect cell toxicity)” value [1] was 24 ± 9 nM.
For “ASCPNVGAVCSPFETKPCGNVKDCRCLPWGLAFGTCINPTG (disulfide 3-24, 10-26, 18-36) [F32A]”, the Ki (PA1b receptor; SEM) was 39.8 ± 15 nM and the “LD50 (insect cell toxicity)” value [1] was 122 ± 12 nM.
For “ASCPNVGAVCSPFETKPCGNVKDCRCLPAGLFFGTCINPTG (disulfide 3-24, 10-26, 18-36) [W29A]”, the Ki (PA1b receptor; SEM) was 36.3 ± 6.7 nM and the “LD50 (insect cell toxicity)” value [1] was 89.0 ± 3.7 nM.
In the case of “ASCPNVGAVCSPFETKPCGNVKDCACLPWGLFFGTCINPTG (also: bicyclic or more (positions not given here)) [R25A, single point alanine mutant of AG41 at Arg-25]”, the Ki (PA1b receptor) is reported as > 1000 nM.
With “ASCPNVGAVCSPAETKPCGNVKDCRCLPWGLFFGTCINPTG (also: bicyclic or more (positions not given here)) [F13A, single point alanine mutant of AG41 at Phe-13]” the Ki (PA1b receptor) was > 1000 nM.
For “ASCPNVGAVCSPFETKPCGNVKDCRCLPWGLFFGTCINPTG (disulfide 3-24, 10-26, 18-36) [AG41]”, the Ki (PA1b receptor; SEM) was 1.3 ± 0.6 nM and the “LD50 (insect cell toxicity)” value [1] was 5.6 ± 1.8 nM.
With “ASCPNVGAVCSPFETAPCGNVKDCRCLPWGLFFGTCINPTG (disulfide 3-24, 10-26, 18-36) [K16A]” the Ki (PA1b receptor; SEM) was 3.6 ± 1.6 nM and the “LD50 (insect cell toxicity)” value [1] was 10.0 ± 4.0 nM.
“ASCPNVGAVCSPFETKPCGNVKDCRCLPWGLFAGTCINPTG (disulfide 3-24, 10-26, 18-36) [F33A]” was tested, and the Ki (PA1b receptor; SEM) was 15 ± 4.8 nM and the “LD50 (insect cell toxicity)” value [1] was 210 ± 8 nM.
“ASCPNVGAVCSPFETKPCGNVKDCRCLPWGAFFGTCINPTG (also: bicyclic or more (positions not given here)) [L31A, single point alanine mutant of AG41 at Leu-31]” showed a Ki (PA1b receptor; SEM) of 263 ± 8 nM.
With “ASCPNVGAVCSPFETKPCGNVKDCRCAPWGLFFGTCINPTG (disulfide 3-24, 10-26, 18-36) [L27A]” the Ki (PA1b receptor; SEM) was 486 ± 11 nM and the “LD50 (insect cell toxicity)” value [1] was 907 ± 46 nM.
For “ASCPNVGAVCSPFATKPCGNVKDCRCLPWGLFFGTCINPTG (also: bicyclic or more (positions not given here)) [E14A, single point alanine mutant of AG41 at Glu-14]”, the Ki (PA1b receptor; SEM) was 1.2 ± 1.3 nM.
For “ASCPNVGAVCSPFETKPCGNVADCRCLPWGLFFGTCINPTG (disulfide 3-24, 10-26, 18-36) [K22A]”, the Ki (PA1b receptor; SEM) was 3.2 ± 1.7 nM and the “LD50 (insect cell toxicity)” value [1] was 14.2 ± 6.3 nM.
